Experimental data as given in publication PMC10099809, “Valorization of Adhatoda vasica leaves: Extraction, in vitro analyses and in silico approaches” (Frontiers in Nutrition, 2023).
≈ marks a conversion by molar mass, not a printed value.

Tests used:
lipooxygenase (LOX) = test: Lipooxygenase inhibition assay; format: biochemical
From the text: (§1) The anti-inflammatory activity of vasicine was investigated with lipooxygenase (LOX) inhibition assay ([26]), bovine serum albumin (BSA) method ([27]), egg albumin method ([28], [29]), and protein inhibitory action ([30]).

egg albumin = molecular target: T1, egg albumin (Gallus gallus, UniProt P01012); test: Egg albumin method (albumin denaturation); format: biochemical; details: for Inhibition of albumin denaturation: concentration range 10 to 100 μg/ml
T1 sequence (P01012 1-386): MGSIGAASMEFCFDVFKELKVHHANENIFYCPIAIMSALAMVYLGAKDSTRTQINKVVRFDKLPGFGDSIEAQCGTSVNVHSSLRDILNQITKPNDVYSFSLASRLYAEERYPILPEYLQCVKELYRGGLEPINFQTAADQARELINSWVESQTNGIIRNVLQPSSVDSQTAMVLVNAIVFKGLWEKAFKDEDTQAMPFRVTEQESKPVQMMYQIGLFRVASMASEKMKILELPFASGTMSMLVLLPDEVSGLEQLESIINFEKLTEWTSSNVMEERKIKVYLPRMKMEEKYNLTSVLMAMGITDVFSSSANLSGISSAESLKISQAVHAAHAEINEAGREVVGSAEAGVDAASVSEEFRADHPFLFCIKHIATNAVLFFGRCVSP
From the text: as §1

proteinase = test: Proteinase inhibitory activity; format: biochemical
From the text: as §1

[1] = DPPH radical scavenging activity; details: for DPPH % inhibition: at 100 μg/ml
Method: (§2) The anti-oxidant activity of vasicine was evaluated with ABTS [2,2′-azino-bis (3-ethylbenzothiazoline-6-sulfonic acid)] activity ([20]), ferric reducing power (FRAP) assay, DPPH radical scavenging activity, hydroxyl radical scavenging activity ([21]–[24]), and hydrogen peroxide assay ([25]).

[2] = Hydroxyl radical scavenging assay; details: for Hydroxyl radical scavenging % inhibition: range, up to 100 μg/ml
Method: as §2

[3] = tested on: serum alkaline phosphatase; design: method as in Srinivasarao et al. ([60]); details: Swiss albino mice treated with vasicine; ref Srinivasarao et al. ([60]); cited from earlier work
[4] = molecular target: bovine serum albumin (BSA) (Bos taurus, UniProt P02769); test: BSA method (albumin denaturation); format: biochemical
Sequence of bovine serum albumin (BSA) (P02769 25-607): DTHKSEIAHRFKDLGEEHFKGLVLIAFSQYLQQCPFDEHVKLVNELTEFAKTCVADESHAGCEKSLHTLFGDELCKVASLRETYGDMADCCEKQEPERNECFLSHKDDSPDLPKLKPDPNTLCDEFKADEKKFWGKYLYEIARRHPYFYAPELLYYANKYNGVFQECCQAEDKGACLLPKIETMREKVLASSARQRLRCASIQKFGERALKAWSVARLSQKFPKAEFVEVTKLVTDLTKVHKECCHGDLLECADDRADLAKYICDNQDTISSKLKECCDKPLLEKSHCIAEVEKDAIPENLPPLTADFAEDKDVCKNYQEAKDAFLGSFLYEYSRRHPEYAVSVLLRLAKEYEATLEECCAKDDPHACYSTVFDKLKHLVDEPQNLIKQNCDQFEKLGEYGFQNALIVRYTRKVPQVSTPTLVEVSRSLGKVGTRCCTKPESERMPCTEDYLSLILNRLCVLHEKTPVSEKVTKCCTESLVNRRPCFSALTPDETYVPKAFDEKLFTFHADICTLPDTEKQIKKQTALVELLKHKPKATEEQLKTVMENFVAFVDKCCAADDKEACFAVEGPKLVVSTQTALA
From the text: as §1

hemoglobin = hemoglobin (Homo sapiens, UniProt P68871+P69905); test: Non-enzymatic glycosylation of hemoglobin assay; format: biochemical; details: incubation of hemoglobin with glucose for 72 h; in comparison to the standard drug
Sequence of hemoglobin (P69905 2-142 limits assumed): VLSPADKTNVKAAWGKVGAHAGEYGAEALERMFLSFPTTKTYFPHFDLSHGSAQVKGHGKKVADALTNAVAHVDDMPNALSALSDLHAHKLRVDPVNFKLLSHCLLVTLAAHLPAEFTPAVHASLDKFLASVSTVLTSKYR
Sequence of hemoglobin (P68871 2-147 limits assumed): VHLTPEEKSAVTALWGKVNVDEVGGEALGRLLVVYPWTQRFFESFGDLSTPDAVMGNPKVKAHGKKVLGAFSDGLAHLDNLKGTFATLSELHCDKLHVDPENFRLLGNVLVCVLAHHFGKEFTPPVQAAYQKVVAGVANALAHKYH
Method: (§3) The antidiabetic activity of vasicine was evaluated with in vitro enzymatic assays using α-amylase and α-glucosidase ([31]–[36]). The non-enzymatic glycosylation of hemoglobin assay was also carried out ([37]).

lung carcinoma (A545) = test: Anticancer activity, direct microscopic observation and MTT assay; format: cell-based
Method: (§4) The anticancer activity of vasicine for the potential treatment of lung carcinoma (A545) was evaluated in a multi-step process. Cytotoxicity of vasicine was investigated by cytotoxicity evaluation (human fibroblast cell line, C0135C) ([39], [40]), direct microscopic observation ([41]), and MTT assay ([42]).

Hydrogen peroxide assay = test: Hydrogen peroxide assay
Method: as §2

[5] = Ferric reducing antioxidant power (FRAP) assay
Method: as §2

ABTS scavenging activity = test: ABTS scavenging activity
Method: as §2

α-amylase = α-amylase inhibition assay; format: biochemical
Method: as §3

[6] = tested on: human fibroblast cell line, C0135C; test: Cytotoxicity evaluation, MTT assay; format: cell-based; details: cell viability
Method: as §4

Bacillus badius = test: Antibacterial colony forming units (CFU) assay; format: cell-based; details: increasing concentration of purified vasicine
Method: (§5) Antibacterial assay was carried outby colony forming units (CFU) assay using anaerobic and facultative oral bacteria ([17]). Two different bacterial strains (Escherichia coli and Bacillus badius) were collected from NCCS, Pune. […] The broth were kept in incubator at 37°C for 24 h. Two strains of Bacteria were grown in MH broth to an OD600nm of 0.5. 2 μLaliquot of the bacteria and 5 ml of fresh MH broth (contains various concentration of vasicine) was added ([19]). The log10 reduction in CFU/ml was determined.

Escherichia coli = test: Antibacterial colony forming units (CFU) assay; format: cell-based; details: E. coli; increasing concentration of purified vasicine
Method: as §5

In the case of O=C(O)Cc1ccccc1Nc1c(Cl)cccc1Cl [diclofenac sodium, reference compound], the Lipooxygenase % inhibition (lipooxygenase (LOX); at 100 μg/ml) is reported as 82% and the “Inhibition of albumin denaturation” value (egg albumin) is reported as 89%.
With CC(=O)Oc1ccccc1C(=O)O [aspirin, reference compound] the Proteinase % inhibition (proteinase; standard) was 79%.
In the case of O=C1O[C@H]([C@@H](O)CO)C(O)=C1O [ascorbic acid, reference compound], the DPPH % inhibition [1] is reported as 96% and the “Hydroxyl radical scavenging % inhibition” value [2] is reported as 15–86%.
For O[C@H]1CCN2Cc3ccccc3N=C12 [vasicine], the Serum alkaline phosphatase [3] is listed as “increase in serum alkaline phosphatase”, the IC50 [4] is listed as 275 µM and the “BSA method maximum percentage of inhibition” value ([4]; maximum) is listed as 82%. The “Inhibition of hemoglobin glycosylation” value (hemoglobin) was “substantially inhibits hemoglobin glycosylation”, the “Lipooxygenase IC50” value (lipooxygenase (LOX)) was 76 µg/mL and the “Lipooxygenase maximum percentage inhibition” value (lipooxygenase (LOX); maximum) was 83%. For the same molecule, the inhibition at 100 µg/mL (lung carcinoma (A545); A545, read-out: Growth inhibition of lung cancer cell line) was 30.1%, the “Inhibition of cell growth, lung cancer cell line” value (lung carcinoma (A545); discussion statement, concentration not given) was “More than 50%” and the “DPPH radical scavenging IC50” value [1] was 18.2 µg/mL. The DPPH % inhibition [1] was 81%, the IC50 (egg albumin) was 283 µM and the “Inhibition of albumin denaturation” value (egg albumin) was 81%. For the same molecule, the “Hydroxyl radical scavenging IC50” value [2] was 22 µg/mL, the “Hydroxyl radical scavenging % inhibition” value [2] was 12–69% and the “Hydrogen peroxide assay IC50” value (Hydrogen peroxide assay) was 27.8 µg/mL. The “Inhibitory activity against hydrogen peroxide” value (Hydrogen peroxide assay; 10–100 μg) was 9–59%, the “FRAP IC50” value [5] was 15 µg/mL and the FRAP % inhibition ([5]; at 100 μg/ml) was 62%. The “ABTS scavenging IC50” value (ABTS scavenging activity) was 11.5 µg/mL, the “α-amylase inhibition IC50” value (α-amylase) was 47.6 µg/mL and the IC50 [6] was 82.5 µg/mL (≈ 438 µM). For the same molecule, the “Number of colonies (CFU assay)” value (Bacillus badius) was “number of colonies reduced”, the “Number of colonies (CFU assay)” value (Escherichia coli) was “number of colonies reduced” and the “Proteinase inhibitory IC50” value (proteinase) was 76 µg/mL.
